Measurements published in US7094754B2, “Anti-aging and wound healing compounds” (Kimberly-Clark Worldwide, Inc., priority 2001, dated 2006).
Ends that are not written are not given here.

Legend:
Type in all cases: cell-based
[1] = Viability assay (MTT) in EpiDerm skin model; conditions: human, EpiDerm skin model (MatTek), relative to PBS control, average over 500 μM and 2 mM, read-out: total average viability
Text: FIG. 16 provides a bar graph showing the percent living cells, relative to a positive control, in a skin model after treatment with two concentrations of peptide. The first sample, treated with phosphate buffered saline (PBS), is the positive control used to establish the cell count representing 100% viability. The second sample is a negative control where cells were exposed to 1% Triton-X100, showing that the assay can detect cell death. […] Data shown represent the average of three tests.
The sample containers were transferred to 6 well plates that contained fresh media. All peptides were dissolved in PBS at a final concentration of 10 mM, and 100 μL each peptide solution was pipetted onto the surface of the Epiderm sample container. Incubation was continued for 12 hours at 37° C., 5% CO2. After the incubation period, the sample containers were washed three times with PBS and the sample containers were transferred to a 24 well plate that contained 300 μL of MTT assay media per well (MTT concentration was 1 mg/mL). The colorimetric assay was allowed to develop for three hours (incubation at 37° C., 5% CO2). Sample containers were then transferred to a 24 well culture plate that contained 2 mL of isopropanol per well. Extraction of the colored precipitate occurred over a period of four hours at room temperature. Absorbance readings were taken at 570 nm and 650 nm for each sample. The percent viability of each sample relative to a PBS control was calculated as: 100×(OD570^sam−OD650^sam)/(OD570^con−OD650^con) (6) Routinely, the peptide sample was assayed in triplicate. Results The sequence of matrix metalloproteinase-2 (SEQ ID NO:14) is provided below to facilitate definition of the various domains and regions in matrix metalloproteinases.

[2] = tested on: normal human dermal fibroblasts (NHDF); experiment: NHDF migration assay (48-well chemotaxis chamber); conditions: three hours
Experimental: Normal, human dermal fibroblasts (NHDF) were obtained from Biowhittaker, (Walkersville, Md.) and propagated in T75 flasks in FBM media (500 mL, Biowhittaker) containing insulin, hFGF-b, GA-1000, and fetal bovine serum (10 mL) for up to 12 passages. For the migration assay, NHDF were washed once with 10 mL of Hank's buffered saline solution (HBSS). Three milliliters of trypsin (0.25%) in EDTA were added to the T75 flask for no more than five minutes to remove NHDF from the flask. NHDF in trypsin solution were added to 7 mL of FBM with no supplements added. NHDF were centrifuged for 5 minutes, and the supernatant was removed. NHDF were resuspended in 10 mL of FBM for counting. NHDF were centrifuged for another 5 minutes, and the supernatant was removed. NHDF were resuspended at 1×10^6 cells per mL in FBM without supplements. It was important to use FBM media only in migration assays because the complete media contains fibroblast growth factor and serum, both of which will trigger migration of fibroblasts.
(§1) Peptides were synthesized and purified by the Microchemical Facility at Emory University or by SigmaGenesis. All peptides were analyzed by mass spectrometry after HPLC to assess purity. Approximately 0.5–2.0 milligrams of peptide were used to make fresh stock solutions (5 mg/mL in PBS) for each migration assay. The peptide stock solutions in PBS were used to make more dilute solutions (1 mg/mL, 100 μg/mL, 10 μg/mL, 1 μg/mL, 100 ng/mL, 10 ng/mL) in FBM (without supplements) for the migration assays.
Polyvinylpyrrolidone-free polycarbonate membranes with […] pores (Neuroprobe, Inc., Gaithersburg, Md.) were washed with 90% ethanol for 15 minutes and rinsed four times with deionized water. Membranes were then placed into a glass dish containing an aqueous solution of 5 μg/mL gelatin. The glass dish was placed in to a water bath at about 90° C. for one hour. Membranes were removed from the gelatin solution and were allowed to dry for one hour in the 37° C. incubator.
A 48-well chemotaxis chamber (Neuroprobe, Inc., Gaithersburg, Md.) (see FIG. 20) was used for the migration assays. Twenty-eight/μL of each test solution were added to the bottom wells of the chamber in quadruplicate. A gelatin-treated membrane was placed carefully on top of the bottom wells. The gasket and top part of chamber were then placed carefully on top of the membrane. The apparatus was tightened using six thumbscrews. A solution of NHDF containing an estimated cell density (2×10^5 cells per mL) was made by adding 320 μL of the 1×10^6 cells per mL solution to 1.28 mL of FBM (no supplements). Fifty microliters of the 2×10^5 cells per mL NHDF solution were added to the top part of each well in the chamber. The chamber was placed in the incubator at 37° C./5% CO2 for three hours. The chamber was removed, the thumbscrews were removed, and the chamber was turned upside down on a paper towel. […] The membrane was carefully removed. […] The membrane was fixed with methanol and stained using the Diff-Quik Staining Solutions I and II. The nuclei of NHDF are stained purple. The membrane was mounted on a glass slide using cedarwood immersion oil and a cover slip. […] The average number of migrated NHDF in the negative control was subtracted from the experimental (peptide) data and positive control data.

[3] = tested on: neutrophils isolated from human blood; experiment: Neutrophil migration assay (transwell); conditions: 10 nM, positive control; HSA 0.4%
Experimental: as §1, with “HBSS/HSA)” for “PBS)”, “solutions” for “solutions in PBS”, “ng/mL, and” for “ng/mL,”, “HBSS/HSA” for “FBM (without supplements)”, “the” for “the migration”
Neutrophils were isolated from human blood (collected in Vacutainerm tubes containing EDTA) by layering the blood/EDTA mixture (about 20 mL) on top of two layers of Histopaque™ 1119 (bottom layer, 18 mL) and 1077 (top layer, 7 mL) in 50 mL Falcon tubes. The tubes were centrifuged at 1800 rpm for 30 minutes (no brake). Four layers appeared in the tubes after the spin (from top to bottom layers): plasma, 1077, 1119, and red blood cells. The buffy coat between the plasma and 1077 layers contained lymphocytes, monocytes, and some platelets. The plasma layer, the buffy coat, and most of the 1077 layer was removed and discarded. The 1119 layer that contained the neutrophils was removed and was placed into a clean 50 mL tube. Dulbecco's Phosphate Buffered Saline (DPBS) was added to bring the volume to 50 mL. The cells were centrifuged for 15 minutes at 2100 rpm. The cells were resuspended in 10 mL of DPBS, transferred to 15 mL tubes, and centrifuged again for 10 minutes at 2000 rpm. This process was repeated to wash the cells a second time. After the supernatant was removed, the red blood cells were lysed by adding 6 mL of cold sterile water to each 15 mL of supernatant. Cells were mixed in the water for only 30 seconds. Six mL of cold 2% sterile saline was then added. Cells were centrifuged again for 10 minutes at 2000 rpm. The red supernatant (containing hemoglobin from red blood cells) was removed. This process of red blood cell lysis was repeated two more times to remove all of the red blood cells. After most of the red blood cells were removed, neutrophils were resuspended in 10 mL of HBSS/HSA for counting with trypan blue.
A neutrophil migration assay was performed in duplicate using a 24-well transwell plate (3 μm pore size for membrane). Transwell membranes were pre-moistened with 20–40 μL of HBSS/HSA (0.04–0.4%). Chemotactic solutions (500 μL) were added to the bottom of each well. […] Transwells were then placed into the chemotactic solutions. The plate was placed into the incubator (37° C., 5% CO2) for one hour. Cells that migrated through the membrane were counted using trypan blue.
In the neutrophil migration experiments, neutrophils that were isolated were approximately 95% viable. Neutrophils were resuspended in HBSS/0.4%HSA for this experiment. IL-8 (10 nM in the HBSS/0.4%HSA buffer) was used as a positive control for neutrophil migration.

| Substance | viability at 12 h [1] [%] | percent of migrated NHDF compared to plasma fibronectin positive control ([2]; 100 μg/mL peptide) [%] | percent of migrated NHDF compared to plasma fibronectin positive control ([2]; 1000 μg/mL peptide) [%] | Percent Neutrophil Migration exp.1 [3] [%] |
| --- | --- | --- | --- | --- |
| NYNFFPRKPK [10-mer] | 89.6 | 11±0 | 30±2 | – |
| IL-8: positive control for neutrophil migration (10 nM in HBSS/HSA buffer) [reference compound] | – | – | – | 81 |
| PRCGNPDVA [9-mer] | 95.8 | 16±0 | 32±2 | – |
